The record followed here is PubChem BioAssay (NCI).

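Step 1: Grow cells in 96-well plates. Step 2: Expose to compound for 48 hours at 5 concentrations. Step 3: Interpolate endpoints linearly; if unreached, use highest concentration. GI50 marks 50% less growth. Definition used: TGI = concentration required for complete inhibition of growth.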

Common to all, as to assay: NCI anticancer screen, dose series, 48 h
For test [1], the system named is HCT-15 colon.
The subject of test [2] is OVCAR-3 ovarian.
The subject of test [3] is NCI/ADR-RES ovarian.
Test [4] deals with ACHN renal.
The test system of test [5] is SF-295 CNS.
The subject of test [6] is SNB-75 CNS.
Test [7] deals with SR leukemia.
The subject of test [8] is UO-31 renal.
In test [9] the test system is K-562 leukemia.
Test [10] relates to HL-60(TB) leukemia.

With `CCC(c1ccc(OC)cc1)C(CC)c1ccc(O)c(CN2CCCC2)c1` (stereo not given), the GI50 was 3090 nM in test [1]; 6150 nM in [2]; 5920 nM in test [3]; 4570 nM in [4]; 2120 nM in test [5]; 3280 nM in test [6]. The GI50 is 1490 nM in test [7], 3910 nM in test [8], 1610 nM in [9] and 2140 nM in [10]. The TGI came out at 10700 nM in test [1]; 19500 nM in test [2]; 22300 nM in test [3]; 18500 nM in test [4]; 4850 nM in test [5]; 15500 nM in test [6]. The TGI in [7] was determined as 4620 nM; in test [8], 17000 nM; in test [9], 5590 nM; in test [10] it was 4760 nM.
With `O=C1c2cccc3cc([N+](=O)[O-])cc(c23)C(=O)N1CCN1CCCC1`, the GI50 was 334 nM in [1]; 1740 nM in [2]; 871 nM in [3]; 193 nM in [4]; 227 nM in test [5]; 388 nM in test [6]. Further, the GI50 is 52.3 nM in test [7], 281 nM in test [8], 534 nM in test [9] and 404 nM in [10]. Besides, the TGI in test [2] was 5710 nM; in [4] it was 706 nM; in test [5], 734 nM; in [6], 2270 nM; in test [8], 3170 nM; in test [10] it was greater than 100000 nM.
On to `CCCCNC(=O)Oc1ccc2c(=O)c3sc4c(=O)c5ccccc5c(=O)c4c3c(=O)c2c1`, for which the GI50 in test [1] was 160 nM; in test [2], 299 nM; in test [3], 1580 nM; in [4], 874 nM; in test [5], 176 nM; in [6] it was 189 nM. Besides, the GI50 in test [7] was 770 nM; in [8], 699 nM; in [9] it was 937 nM; in test [10] it was 3110 nM. The TGI stood at 360 nM in test [1]; 977 nM in [2]; 8430 nM in [3]; 2180 nM in test [4]; 373 nM in test [5]; 421 nM in test [6]. The TGI was greater than 100000 nM in [7], 2660 nM in [8], 11500 nM in test [9] and greater than 100000 nM in test [10].
Consider `O=S(=O)(NCCCNc1cc(-c2cn(-c3ccccc3)nc2-c2cccc(O)c2)ccn1)c1cccc2ccccc12`, for which the GI50 in test [1] was 1800 nM; in test [2], 5620 nM; in [3] it was 3720 nM; in test [4], 3700 nM; in test [5], 1640 nM; in [6], 2350 nM. Also, the GI50 was 1840 nM in test [7], 2100 nM in test [8], 614 nM in test [9] and 2700 nM in test [10]. Moreover, the TGI was 6590 nM in test [1]; greater than 100000 nM in test [2]; greater than 100000 nM in [3]; greater than 100000 nM in test [4]; 4320 nM in test [5]; greater than 100000 nM in test [6]. The TGI in test [7] was 7330 nM; in [8], 9320 nM; in test [9], 4480 nM; in test [10], 7200 nM.
`Cc1cccc2c1O/C(=C\c1ncc([N+](=O)[O-])n1C)C2=O`: the GI50 is 87.4 nM in test [1]; 254 nM in test [2]; 200 nM in test [3]; 59.5 nM in [4]; 516 nM in test [5]; 781 nM in [6]. Besides, the GI50 in test [8] was 190 nM; in test [9], 304 nM; in [10], 216 nM. For the same compound, the TGI in test [1] stood at 318 nM; in test [2] it was 864 nM; in test [3], 783 nM; in test [4], 341 nM; in test [5], 2620 nM; in test [6], 3360 nM. The TGI was determined as 69.9 nM in [7], 708 nM in test [8], 3180 nM in test [9] and 1130 nM in test [10].
